These are literature values, as cited in patent US20090162921A1 (priority 2005, published 2009).

The subject of this data set is mouse. The note with it: in vivo; for LD50: po.

In the case of arsenic acid [As(V)], the “LD50 (50% of the fatal dose in mouse)” value is 14 to 18 mg/kg and the LD50 is 14 to 18 mg/kg.
For the compound `C[As+](C)(C)CC(=O)[O-]` [AB, arsenobetaine], the “LD50 (50% of the fatal dose in mouse)” value is reported as 10000 mg/kg and the LD50 is 10000.
